Data from publication PMC9500072, “Topical application of an irreversible small molecule inhibitor of lysyl oxidases ameliorates skin scarring and fibrosis” (Nature Communications, 2022).
Where “and” joins values, the source holds several entries; their conditions need not be identical. Equal values may be shown once.

Tests used:
DAO = molecular target: T1, DAO (Homo sapiens, UniProt P19801); test: Compound oxidation by DAO; assay type: biochemical
T1 sequence (P19801 20-751): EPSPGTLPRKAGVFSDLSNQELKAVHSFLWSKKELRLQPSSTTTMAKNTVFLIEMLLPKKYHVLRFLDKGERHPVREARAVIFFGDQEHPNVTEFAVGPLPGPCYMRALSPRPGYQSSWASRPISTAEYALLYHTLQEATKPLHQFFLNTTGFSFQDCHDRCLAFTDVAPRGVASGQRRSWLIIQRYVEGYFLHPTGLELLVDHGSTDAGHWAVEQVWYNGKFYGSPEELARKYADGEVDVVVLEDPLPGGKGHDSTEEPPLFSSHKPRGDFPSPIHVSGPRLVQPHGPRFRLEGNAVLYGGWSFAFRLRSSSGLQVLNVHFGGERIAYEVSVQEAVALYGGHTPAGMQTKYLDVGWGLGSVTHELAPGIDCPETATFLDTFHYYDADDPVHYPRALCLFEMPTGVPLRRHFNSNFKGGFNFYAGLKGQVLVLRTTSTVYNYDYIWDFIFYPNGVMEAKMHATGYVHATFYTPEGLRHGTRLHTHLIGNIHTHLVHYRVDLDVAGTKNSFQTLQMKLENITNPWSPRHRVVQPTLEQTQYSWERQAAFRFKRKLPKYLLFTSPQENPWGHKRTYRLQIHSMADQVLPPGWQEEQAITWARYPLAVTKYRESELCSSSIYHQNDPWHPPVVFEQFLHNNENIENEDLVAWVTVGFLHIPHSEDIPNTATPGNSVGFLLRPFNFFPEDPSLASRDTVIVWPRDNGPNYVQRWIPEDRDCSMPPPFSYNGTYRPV

[1] = tested on: bleomycin-induced skin fibrosis; test: Bleomycin-induced skin fibrosis in mice; assay type: in vivo, C57BL/6 mice; design: Skin LOX activity: scale not given here
Method: With a pharmacokinetic and pharmacodynamic profile supportive of the potential as a potent topical anti-fibrotic treatment, we next moved to evaluate the in vivo efficacy of PXS-6302. Intradermal injections of bleomycin on alternate days for three weeks induces fibrosis[21],[22]. […] In this model, starting from Day 3 and continuing until Day 20, bleomycin-dosed mice (0.1U, alternate days), were treated once daily topically with 0% (vehicle) or 1.5% PXS-6302 oil in water cream (2 ×100 μL applications at a 10-min interval). […] As bleomycin also stimulates the expression of degrading enzymes such as matrix metalloproteases, the significant drop in hydroxyproline and immature crosslinks could be related to both the reduced production as well as the accelerated degradation of these matrix proteins.
Cell pellets or isolated tissue samples were completely hydrolyzed in 1.5 mL 6 M hydrochloric acid for 24 h at 105 °C. After complete hydrolysis, samples were dried using a vacuum dryer and reconstituted using 200 µL MilliQ water. The sample clean-up was performed using solid-phase extraction method which uses C18 and SCX solid-phase extraction cartridges for sample purification. The samples were run on UPLC-MS-MS (Mass Spectrometer: Thermo Scientific TSQ Endura Triple quadrupole, UPLC: Thermo Scientific Dionex UltiMate 3000) using Agilent RRHD SB-C18,2.1x50mm,1.8um analytical column and solvent A: 10 mM ammonium formate, 0.1% formic acid, 0.1% HFBA in H2O and solvent B: 10 mM ammonium formate, 0.1% formic acid, 0.1% HFBA in MeOH and analyzed as previously described. Limits of detection are listed in Supplementary Table S4.
8–10-week old C57BL/6 mice (n = 10 each group) were used to induce skin fibrosis. Bleomycin (Bleomycin sulfate from Streptomyces verticillicus, Euroasia) dry powder 1.5 IU/mg was reconstituted in saline at 2 IU/ml concentration. Starting on day 0 and continuing on alternate days thereafter, animals received subcutaneous injection of Bleomycin (0.1 IU in 50 µL volume) and/or saline on the right flank. For each animal, each dose was injected at a single site. The injections were continued for 20 days throughout the study. Starting from day three, vehicle cream or vehicle plus drug cream were applied topically once a daily treatment to a 2 cm × 2 cm area on the right dorsal flank of the animal for 20 days. On Day 21, all animals were euthanized and the skin tissue was collected for further histopathological analysis. The skin tissue was fixed in 4% PFA and sectioned skin was stained with Masson’s Trichrome, Collagen I and LOX and used to assess dermal fibrosis. Masson’s Trichrome was used to assess fibrotic index. Collagen Stain was subjectively scored for intensity as compared to control tissue. LOX Stain was subjectively scored as stain accumulation compared to control tissue. All images were assessed by assessors blinded to the treatment group. Composite skin/immunohistochemistry scoring tables used are in the Supplementary Information (Supplementary Tables S5, S6).

[2] = tested on: full-thickness excision injury scar; test: Porcine excision injury model; assay type: in vivo, pigs
[3] = Systemic exposure in rat at 1000 mg/kg/day; assay type: in vivo; conditions: daily for 1 week
Adrenergic α1A = Adrenergic α1A (Rattus norvegicus, UniProt P43140); test: Eurofins panel 203100; assay type: binding
Adrenergic α1A, sequence (P43140 whole entry): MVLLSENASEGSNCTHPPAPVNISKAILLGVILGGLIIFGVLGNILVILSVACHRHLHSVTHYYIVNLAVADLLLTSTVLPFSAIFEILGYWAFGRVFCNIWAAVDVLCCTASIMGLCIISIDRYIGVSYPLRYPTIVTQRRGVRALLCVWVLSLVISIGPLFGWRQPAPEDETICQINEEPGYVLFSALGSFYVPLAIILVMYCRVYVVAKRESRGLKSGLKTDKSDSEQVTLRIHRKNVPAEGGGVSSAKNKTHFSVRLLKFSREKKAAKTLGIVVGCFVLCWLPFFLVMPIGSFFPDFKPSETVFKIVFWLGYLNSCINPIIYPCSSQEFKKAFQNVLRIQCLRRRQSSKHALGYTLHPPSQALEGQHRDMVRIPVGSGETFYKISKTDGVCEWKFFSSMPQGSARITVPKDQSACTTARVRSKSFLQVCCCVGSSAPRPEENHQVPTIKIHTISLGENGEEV

Adrenergic β2 = Adrenergic β2 (Homo sapiens, UniProt P07550); test: Eurofins panel 204110; assay type: binding
Adrenergic β2, sequence (P07550 whole entry): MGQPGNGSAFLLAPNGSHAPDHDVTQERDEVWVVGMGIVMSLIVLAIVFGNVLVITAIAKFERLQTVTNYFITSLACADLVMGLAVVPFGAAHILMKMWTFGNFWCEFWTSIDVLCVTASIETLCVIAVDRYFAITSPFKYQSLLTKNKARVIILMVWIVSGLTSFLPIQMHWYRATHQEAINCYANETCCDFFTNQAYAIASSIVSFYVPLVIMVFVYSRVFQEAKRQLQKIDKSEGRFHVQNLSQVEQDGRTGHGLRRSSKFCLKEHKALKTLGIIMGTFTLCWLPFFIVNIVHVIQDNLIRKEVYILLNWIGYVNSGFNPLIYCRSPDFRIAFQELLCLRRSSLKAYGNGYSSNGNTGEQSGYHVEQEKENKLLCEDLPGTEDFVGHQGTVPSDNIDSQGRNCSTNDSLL

Androgen (Testosterone) = test: Eurofins panel 206000; assay type: binding, human
Dopamine D1 = Dopamine D1 (Homo sapiens, UniProt P21728); test: Eurofins panel 219500; assay type: binding
Dopamine D1, sequence (P21728 whole entry): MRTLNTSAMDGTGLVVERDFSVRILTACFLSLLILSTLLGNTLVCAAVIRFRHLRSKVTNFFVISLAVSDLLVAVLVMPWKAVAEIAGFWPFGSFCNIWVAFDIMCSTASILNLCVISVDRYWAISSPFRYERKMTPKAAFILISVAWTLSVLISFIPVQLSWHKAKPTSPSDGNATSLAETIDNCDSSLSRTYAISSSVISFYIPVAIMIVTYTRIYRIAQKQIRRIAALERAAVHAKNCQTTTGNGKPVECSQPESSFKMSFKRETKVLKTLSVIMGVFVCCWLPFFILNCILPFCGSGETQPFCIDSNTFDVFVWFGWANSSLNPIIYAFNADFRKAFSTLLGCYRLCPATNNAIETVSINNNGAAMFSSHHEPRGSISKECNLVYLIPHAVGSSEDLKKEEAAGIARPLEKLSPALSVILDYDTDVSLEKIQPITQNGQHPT

Dopamine D2S = Dopamine D2S (Homo sapiens, UniProt P14416); test: Eurofins panel 219700; assay type: binding
Dopamine D2S, sequence (P14416 1-414 isoform P14416-2): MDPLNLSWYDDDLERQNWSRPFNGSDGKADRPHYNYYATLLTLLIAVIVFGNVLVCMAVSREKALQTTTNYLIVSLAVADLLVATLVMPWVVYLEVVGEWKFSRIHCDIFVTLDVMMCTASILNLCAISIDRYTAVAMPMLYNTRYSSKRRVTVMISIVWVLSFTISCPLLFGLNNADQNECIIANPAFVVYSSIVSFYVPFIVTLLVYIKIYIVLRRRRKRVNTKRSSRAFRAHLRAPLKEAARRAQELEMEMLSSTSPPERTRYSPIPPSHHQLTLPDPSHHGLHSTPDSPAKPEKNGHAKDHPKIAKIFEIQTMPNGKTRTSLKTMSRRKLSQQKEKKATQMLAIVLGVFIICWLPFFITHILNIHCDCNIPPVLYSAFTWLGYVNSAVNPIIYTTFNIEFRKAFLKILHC

[4] = tested on: GABAA, Flunitrazepam, Central; test: Eurofins panel 226600; assay type: binding, rat
Glutamate, NMDA, Agonism = test: Eurofins panel 232810; assay type: binding, rat
Muscarinic M1 = Muscarinic M1 (Homo sapiens, UniProt P11229); test: Eurofins panel 252610; assay type: binding
Muscarinic M1, sequence (P11229 whole entry): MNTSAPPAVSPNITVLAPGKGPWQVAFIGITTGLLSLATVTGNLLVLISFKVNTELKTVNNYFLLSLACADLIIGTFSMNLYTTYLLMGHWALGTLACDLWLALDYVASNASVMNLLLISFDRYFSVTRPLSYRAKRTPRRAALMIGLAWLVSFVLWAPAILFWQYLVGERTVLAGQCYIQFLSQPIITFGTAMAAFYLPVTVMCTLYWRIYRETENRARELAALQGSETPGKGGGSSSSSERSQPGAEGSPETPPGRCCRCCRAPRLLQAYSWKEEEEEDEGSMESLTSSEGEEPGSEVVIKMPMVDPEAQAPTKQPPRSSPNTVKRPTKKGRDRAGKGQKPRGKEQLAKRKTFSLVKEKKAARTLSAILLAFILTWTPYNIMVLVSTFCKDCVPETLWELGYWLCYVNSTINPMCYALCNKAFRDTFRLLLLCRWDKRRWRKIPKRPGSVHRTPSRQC

Muscarinic M3 = Muscarinic M3 (Homo sapiens, UniProt P20309); test: Eurofins panel 252810; assay type: binding
Muscarinic M3, sequence (P20309 whole entry): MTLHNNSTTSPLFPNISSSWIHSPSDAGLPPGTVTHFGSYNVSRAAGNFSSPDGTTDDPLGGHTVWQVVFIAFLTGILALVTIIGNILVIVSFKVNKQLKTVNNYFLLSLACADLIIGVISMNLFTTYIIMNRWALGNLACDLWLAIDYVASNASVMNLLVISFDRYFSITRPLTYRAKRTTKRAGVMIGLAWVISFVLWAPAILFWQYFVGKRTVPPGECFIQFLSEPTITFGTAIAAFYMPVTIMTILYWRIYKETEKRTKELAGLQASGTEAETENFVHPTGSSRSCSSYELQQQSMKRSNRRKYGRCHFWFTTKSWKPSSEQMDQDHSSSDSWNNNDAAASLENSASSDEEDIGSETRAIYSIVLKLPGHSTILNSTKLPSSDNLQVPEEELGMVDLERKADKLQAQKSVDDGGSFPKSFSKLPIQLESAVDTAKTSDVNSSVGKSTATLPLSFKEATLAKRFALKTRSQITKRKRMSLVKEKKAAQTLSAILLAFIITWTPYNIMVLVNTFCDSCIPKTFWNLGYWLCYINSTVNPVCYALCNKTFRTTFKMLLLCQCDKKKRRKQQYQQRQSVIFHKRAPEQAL

[5] = molecular target: Serotonin (5-Hydroxytryptamine) 5-HT1A (Homo sapiens, UniProt P08908); test: Eurofins panel 271110; assay type: binding
Serotonin (5-Hydroxytryptamine) 5-HT1A, sequence (P08908 whole entry): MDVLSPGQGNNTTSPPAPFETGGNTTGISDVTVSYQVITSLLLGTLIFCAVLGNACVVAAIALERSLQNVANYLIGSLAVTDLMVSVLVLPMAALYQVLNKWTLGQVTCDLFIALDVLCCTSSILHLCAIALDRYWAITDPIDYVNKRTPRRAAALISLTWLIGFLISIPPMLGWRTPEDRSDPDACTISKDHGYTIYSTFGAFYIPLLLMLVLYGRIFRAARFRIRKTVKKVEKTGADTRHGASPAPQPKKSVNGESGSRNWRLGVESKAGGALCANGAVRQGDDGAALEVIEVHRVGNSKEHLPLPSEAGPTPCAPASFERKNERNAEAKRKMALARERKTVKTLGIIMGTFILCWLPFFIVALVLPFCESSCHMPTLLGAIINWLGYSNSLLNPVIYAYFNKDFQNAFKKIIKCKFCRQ

[6] = molecular target: Transporter, Norepinephrine (NET) (Homo sapiens, UniProt P23975); test: Eurofins panel 204410; assay type: binding
Transporter, Norepinephrine (NET), sequence (P23975 whole entry): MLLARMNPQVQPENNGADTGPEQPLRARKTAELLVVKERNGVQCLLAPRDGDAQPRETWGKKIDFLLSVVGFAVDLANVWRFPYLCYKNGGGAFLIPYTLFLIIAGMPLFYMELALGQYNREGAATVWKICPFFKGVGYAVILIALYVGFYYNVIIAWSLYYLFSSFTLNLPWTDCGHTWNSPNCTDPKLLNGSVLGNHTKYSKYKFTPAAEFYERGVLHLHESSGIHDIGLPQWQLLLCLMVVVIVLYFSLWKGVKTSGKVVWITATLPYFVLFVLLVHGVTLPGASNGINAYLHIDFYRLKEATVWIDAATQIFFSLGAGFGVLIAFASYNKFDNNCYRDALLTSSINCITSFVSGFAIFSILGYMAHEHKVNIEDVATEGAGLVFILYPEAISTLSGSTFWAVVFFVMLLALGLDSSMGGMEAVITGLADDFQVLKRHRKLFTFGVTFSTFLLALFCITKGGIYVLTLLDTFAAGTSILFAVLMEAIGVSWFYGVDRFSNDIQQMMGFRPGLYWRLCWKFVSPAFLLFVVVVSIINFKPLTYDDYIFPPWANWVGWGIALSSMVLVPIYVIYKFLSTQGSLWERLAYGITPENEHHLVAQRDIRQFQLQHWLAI

[7] = molecular target: Transporter, Serotonin (5- Hydroxytryptamine) (SERT) (Homo sapiens, UniProt P31645); test: Eurofins panel 274030; assay type: binding
Transporter, Serotonin (5- Hydroxytryptamine) (SERT), sequence (P31645 whole entry): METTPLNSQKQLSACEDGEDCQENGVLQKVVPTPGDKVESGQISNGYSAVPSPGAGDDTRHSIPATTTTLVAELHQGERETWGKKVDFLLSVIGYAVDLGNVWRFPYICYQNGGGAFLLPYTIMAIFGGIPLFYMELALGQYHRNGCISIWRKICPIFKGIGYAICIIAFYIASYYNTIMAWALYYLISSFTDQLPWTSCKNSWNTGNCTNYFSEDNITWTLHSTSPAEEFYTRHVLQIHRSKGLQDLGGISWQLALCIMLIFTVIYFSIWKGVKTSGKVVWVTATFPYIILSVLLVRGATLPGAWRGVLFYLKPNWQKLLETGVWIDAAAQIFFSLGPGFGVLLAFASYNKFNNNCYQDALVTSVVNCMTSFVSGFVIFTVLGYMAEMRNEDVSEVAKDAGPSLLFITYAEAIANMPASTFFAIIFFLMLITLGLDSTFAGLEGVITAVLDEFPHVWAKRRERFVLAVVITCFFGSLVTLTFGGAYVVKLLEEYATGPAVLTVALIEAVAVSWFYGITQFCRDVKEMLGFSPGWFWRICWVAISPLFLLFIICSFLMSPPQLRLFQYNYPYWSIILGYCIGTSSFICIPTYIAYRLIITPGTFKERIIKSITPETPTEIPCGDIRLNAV

[8] = […] cream topically once daily, Day 3 to Day 20

N#CCCN [BAPN, β-aminoproprionitrile, reference compound]
DAO specificity (Fig 2G), oxidation, individual experiments (DAO; 30): 3.03 and 4.57 and 4.19 and 2.62 and 3.96
DAO specificity (Fig 2G), oxidation, individual experiments (DAO; 60): 5.81 and 3.22 and 2.98 and 4.96
DAO specificity (Fig 2G), oxidation, individual experiments (DAO; 90): 9.3 and 4.42 and 7.32

NC/C=C(\F)CS(=O)(=O)c1ccccc1 [PXS-4787]
composite skin score ([1]; […] cream topically once daily): Reduced
immunohistochemistry COL1 score ([1]; […] cream topically once daily): decreas ed
immunohistochemistry LOX score ([1]; […] cream topically once daily): Decreased
Surgeon score dose response ([2]; 0.5 %): 16 and 20 and 14
Surgeon score dose response ([2]; 3%): 11 and 10 and 12 and 9
Lox enzyme activity in scars ([2]; 3% cream, 24 hours after final application): significantly inhibited
scar appearance rank (0 best to 3 worst) by blinded plastic surgeons ([2]; 3% cream, treatment commenced at 3 weeks post-injury, analysed at 12 weeks): significant improvements in scar appearance
LOX activity S/N ([2]; PXS-4787, individual samples): 2.7 and 1.5 and 1.8 and 1.4 and 1.3
systemic levels [3]: negligible
inhibition at 10 µM (Adrenergic α1A; 10 µM): 1%
inhibition at 10 µM (Adrenergic β2; 10 µM): 10%
% Inh. (Androgen (Testosterone); 10 µM): 2%
inhibition at 10 µM (Dopamine D1; 10 µM): 3%
inhibition at 10 µM (Dopamine D2S; 10 µM): 13%
% Inh. ([4]; 10 µM): -1%
% Inh. (Glutamate, NMDA, Agonism; 10 µM): 2%
inhibition at 10 µM (Muscarinic M1; 10 µM): 56%
inhibition at 10 µM (Muscarinic M3; 10 µM): 27%
inhibition at 10 µM ([5]; 10 µM): 0%
inhibition at 10 µM ([6]; 10 µM): 24%
inhibition at 10 µM ([7]; 10 µM): 8%

NC/C=C(\F)C(F)(F)S(=O)(=O)c1ccccc1 [PXS-6302]
DAO specificity (Fig 2G), oxidation, individual experiments (DAO; 30): 1.03 and 0.98 and 1 and 1.08 and 0.97 and 0.99 and 1.04 and 1.01 and 1.07 and 0.91
DAO specificity (Fig 2G), oxidation, individual experiments (DAO; 60): 1.17 and 1.11 and 1.01
DAO specificity (Fig 2G), oxidation, individual experiments (DAO; 90): 1.87 and 1.39 and 1.55
Skin LOX activity ([1]; Bleo + PXS-6302, individual animals): 0.8656 and 1.07 and 1.02 and 1.046 and 0.9944 and 1.027 and 1.022 and 1.017 and 1.088
Skin thickness ([1]; PXS-6302, individual animals): 0.34 mm and 0.36 mm and 0.41 mm and 0.33 mm and 0.39 mm and 0.38 mm and 0.4 mm
composite skin score ([1]; […] cream topically once daily): significantly reduced
immunohistochemistry COL1 score ([1]; […] cream topically once daily): significantly reduced
immunohistochemistry LOX score ([1]; […] cream topically once daily): significantly reduced
LOX activity in skin [1, 8]: significant reduction
fibrosis as assessed by skin thickness [1, 8]: significantly reduced
hydroxyproline content [1, 8]: reduced
immature crosslinking (DHLNL and HLNL) [1, 8]: reduced
Excision injury scar scores (average score of all surgeons for each wound/tx group) ([2]; 3%): 9 and 6.667 and 6 and 5.667 and 5 and 6.333 and 9.667 and 9.333
scar score 1–10 by blinded plastic surgeons ([2]; 3% cream once daily, 12 weeks): significantly higher scores
LOX activity in scar tissue ([2]; 24 h after the final dose, once daily cream): significantly reduced
S/N ration LOX activity (Fig. 8A) ([2]; porcine scar 24 h after final daily application, individual samples): 1.073 and 0.9572 and 1.114 and 1.845 and 1.506
systemic levels [3]: negligible
inhibition at 30 µM (Adrenergic α1A; read-out: % Inh.): 3%
inhibition at 30 µM (Adrenergic β2; read-out: % Inh.): 17%
% Inh. (Androgen (Testosterone); 30 µM): -14%
inhibition at 30 µM (Dopamine D1; read-out: % Inh.): 0%
inhibition at 30 µM (Dopamine D2S; read-out: % Inh.): 13%
% Inh. ([4]; 30 µM): 4%
% Inh. (Glutamate, NMDA, Agonism; 30 µM): -16%
inhibition at 30 µM (Muscarinic M1; read-out: % Inh.): 13%
inhibition at 30 µM (Muscarinic M3; read-out: % Inh.): 15%
inhibition at 30 µM ([5]; read-out: % Inh.): 3%
inhibition at 30 µM ([6]; read-out: % Inh.): 55%
inhibition at 30 µM ([7]; read-out: % Inh.): 20%
